Laboratory results: US20230271956A1, “AMIDE DERIVATIVES” (Merck Patent GmbH, priority 2020, published 2023)

Molecular target: T1, ACSS2 (Homo sapiens, UniProt Q9NR19)
T1 construct: endogenous fatty acid synthesis activity in the human HCT-15 cancer cell line; endogenous in cells; host or cells: HCT-15
Assay: Cellular assay of 14C acetate incorporation into histones (IC50 ACSS2 cellular histone)
Assay type: cell-based
Conditions: HCT-15 cells
Outline: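 Human HCT-15 cells preincubated 1 h with compound (0.25% DMSO final), then pulsed 3 h with 14C-acetate. Histones were acid-extracted (0.2 M HCl, overnight, 4° C) after Triton lysis in sodium-butyrate buffer; incorporated 14C counted by liquid scintillation (CPM) to give IC50.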

T1 sequence (Q9NR19 whole entry): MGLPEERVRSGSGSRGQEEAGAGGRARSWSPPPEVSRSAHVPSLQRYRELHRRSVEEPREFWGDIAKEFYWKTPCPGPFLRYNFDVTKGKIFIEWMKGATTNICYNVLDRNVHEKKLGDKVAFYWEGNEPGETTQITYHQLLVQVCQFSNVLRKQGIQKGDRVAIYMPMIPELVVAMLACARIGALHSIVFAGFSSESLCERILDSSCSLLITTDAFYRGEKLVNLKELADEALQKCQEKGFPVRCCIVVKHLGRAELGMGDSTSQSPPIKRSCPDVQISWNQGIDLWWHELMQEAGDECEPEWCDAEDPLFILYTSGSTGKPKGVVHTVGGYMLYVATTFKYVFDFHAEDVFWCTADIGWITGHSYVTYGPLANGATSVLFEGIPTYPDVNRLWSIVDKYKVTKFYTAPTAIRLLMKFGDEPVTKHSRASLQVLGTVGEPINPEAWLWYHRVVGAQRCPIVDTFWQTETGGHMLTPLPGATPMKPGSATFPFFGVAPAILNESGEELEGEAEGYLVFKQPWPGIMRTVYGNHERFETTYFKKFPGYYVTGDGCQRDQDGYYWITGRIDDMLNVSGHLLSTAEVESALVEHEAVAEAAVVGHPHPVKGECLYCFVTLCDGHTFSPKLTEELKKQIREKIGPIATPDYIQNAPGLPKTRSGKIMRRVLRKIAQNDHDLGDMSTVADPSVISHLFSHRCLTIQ

CCc1c(C(O)(c2ccccc2)c2ccccn2)nc2cc(OC)c(C(=O)Nc3ncn(CC)n3)cn12 (racemic) [Compound 16, 3-Ethyl-2-(hydroxy-phenyl-pyridin-2-yl-methyl)-7-methoxy-imidazo[1,2-a]pyridine-6-carboxylic acid (1-ethyl-1H-[1,2,4]triazol-3-yl)-amide]
IC50: 1 to 10 nM

CCn1cnc(NC(=O)c2cc3c(nc2OC)nc(C(O)(c2ccccc2F)c2ccc(OC(F)F)cc2F)n3CC)n1 (racemic) [Compound 94, 2-{[4-(difluoromethoxy)-2-fluorophenyl](2-fluorophenyl)hydroxymethyl}-1-ethyl-N-(1-ethyl-1H-1,2,4-triazol-3-yl)-5-methoxy-1H-imidazo[4,5-b]pyridine-6-carboxamide]
IC50: 1 to 10 nM

CCn1cnc(NC(=O)c2cc3c(nc2OC)nc(C(O)(c2ccccc2)c2ccccn2)n3CC)n1 (single isomer, unassigned) [Compound 53, 1-ethyl-N-(1-ethyl-1H-1,2,4-triazol-3-yl)-2-[hydroxy(phenyl)(pyridin-2-yl)methyl]-5-methoxy-1H-imidazo[4,5-b]pyridine-6-carboxamide]
IC50: 0.01 to 1 nM

CCc1c(C(O)(c2ccccc2)c2ccccc2)nn2cc(Cl)c(C(=O)Nc3ncn(CC)n3)cc12 [Compound 1, 6-Chloro-3-ethyl-2-(hydroxy-diphenylmethyl)-pyrazolo[1,5-a]pyridine-5-carboxylic acid (1-ethyl-1H-[1,2,4]triazol-3-yl)-amide]
IC50: 0.01 to 1 nM

CCc1c(C(O)(c2ccccc2F)c2ccccc2F)nn2cc(Cl)c(C(=O)Nc3ncn(CC)n3)cc12 [Compound 2, 2-[Bis-(2-fluoro-phenyl)-hydroxy-methyl]-6-chloro-3-ethyl-pyrazolo[1,5-a]pyridine-5-carboxylic acid (1-ethyl-1H-[1,2,4]triazol-3-yl)-amide]
IC50: 0.01 to 1 nM

CCc1c(C(O)(c2ccccc2F)c2ccccc2F)nn2cc(C)c(C(=O)Nc3ncn(CC)n3)cc12 [Compound 3, 2-[Bis-(2-fluoro-phenyl)-hydroxy-methyl]-3-ethyl-6-methyl-pyrazolo[1,5-a]pyridine-5-carboxylic acid (1-ethyl-1H-[1,2,4]triazol-3-yl)-amide]
IC50: 1 to 10 nM

CCc1c(C(O)(c2ccccc2F)c2ccccc2F)nn2cc(OC)c(C(=O)Nc3cnn(CC)c3)cc12 [Compound 4, 2-[Bis-(2-fluoro-phenyl)-hydroxy-methyl]-3-ethyl-6-methoxy-pyrazolo[1,5-a]pyridine-5-carboxylic acid (1-ethyl-1H-pyrazol-4-yl)-amide]
IC50: 1 to 10 nM

CCc1c(C(O)(c2ccccc2F)c2ccccc2F)nn2ccc(C(=O)Nc3ncn(CC)n3)cc12 [Compound 5, 2-[Bis-(2-fluoro-phenyl)-hydroxy-methyl]-3-ethyl-pyrazolo[1,5-a]pyridine-5-carboxylic acid (1-ethyl-1H-[1,2,4]triazol-3-yl)-amide]
IC50: 1 to 10 nM

CCc1c(C(O)(c2ccccc2)c2ccccc2)nn2cc(Cl)c(C(=O)Nc3cnn(CC)c3)cc12 [Compound 6, 6-Chloro-3-ethyl-2-(hydroxy-diphenylmethyl)-pyrazolo[1,5-a]pyridine-5-carboxylic acid (1-ethyl-1H-pyrazol-4-yl)-amide]
IC50: 1 to 10 nM

CCc1c(C(O)(c2ccccc2)c2ccccc2)nn2cc(OC)c(C(=O)Nc3cnn(CC)c3)cc12 [Compound 8, 3-Ethyl-2-(hydroxy-diphenyl-methyl)-6-methoxy-pyrazolo[1,5-a]pyridine-5-carboxylic acid (1-ethyl-1H-pyrazol-4-yl)-amide]
IC50: 1 to 10 nM

CCc1c(C(O)(c2ccccc2)c2ccccc2)nn2ccc(C(=O)Nc3ncn(CC)n3)cc12 [Compound 9, 3-Ethyl-2-(hydroxy-diphenyl-methyl)-pyrazolo[1,5-a]pyridine-5-carboxylic acid (1-ethyl-1H-[1,2,4]triazol-3-yl)-amide]
IC50: 0.01 to 1 nM

CCc1c(C(O)(c2ccccc2)c2ccccc2)nn2ccc(C(=O)Nc3cnn(CC)c3)cc12 [Compound 10, 3-Ethyl-2-(hydroxy-diphenyl-methyl)-pyrazolo[1,5-a]pyridine-5-carboxylic acid (1-ethyl-1H-pyrazol-4-yl)-amide]
IC50: 10 to 100 nM

CCc1c(C(O)(c2ccccc2)c2ccccc2)nn2cc(OC)c(C(=O)Nc3ncn(CC)n3)cc12 [Compound 11, 3-Ethyl-2-(hydroxy-diphenyl-methyl)-6-methoxy-pyrazolo[1,5-a]pyridine-5-carboxylic acid (1-ethyl-1H-[1,2,4]triazol-3-yl)-amide]
IC50: 0.01 to 1 nM

CCc1c(C(O)(c2ccccc2)c2ccccc2)nc2ccc(C(=O)Nc3cnn(CC)c3)cn12 [Compound 13, 3-Ethyl-2-(hydroxy-diphenyl-methyl)-imidazo[1,2-a]pyridine-6-carboxylic acid (1-ethyl-1H-pyrazol-4-yl)-amide]
IC50: 10 to 100 nM

CCc1c(C(O)(c2ccccc2)c2ccccc2)nc2cc(Cl)c(C(=O)Nc3ncn(CC)n3)cn12 [Compound 14, 7-Chloro-3-ethyl-2-(hydroxy-diphenylmethyl)-imidazo[1,2-a]pyridine-6-carboxylic acid (1-ethyl-1H-[1,2,4]triazol-3-yl)-amide]
IC50: 1 to 10 nM

CCc1c(C(O)(c2ccccc2)c2ccccc2)nc2cc(Cl)c(C(=O)Nc3cnn(CC)c3)cn12 [Compound 19, 7-Chloro-3-ethyl-2-(hydroxy-diphenylmethyl)-imidazo[1,2-a]pyridine-6-carboxylic acid (1-ethyl-1H-pyrazol-4-yl)-amide]
IC50: 10 to 100 nM

CCc1c(C(O)(c2ccccc2)c2ccccc2)nc2cc(F)c(C(=O)Nc3ncn(CC)n3)cn12 [Compound 20, 3-Ethyl-7-fluoro-2-(hydroxy-diphenylmethyl)-imidazo[1,2-a]pyridine-6-carboxylic acid (1-ethyl-1H-[1,2,4]triazol-3-yl)-amide]
IC50: 0.01 to 1 nM

CCc1c(C(O)(c2ccccc2)c2ccccc2)nc2cc(OC)c(C(=O)Nc3cnn(CC)c3)cn12 [Compound 23, 3-Ethyl-2-(hydroxy-diphenyl-methyl)-7-methoxy-imidazo[1,2-a]pyridine-6-carboxylic acid (1-ethyl-1H-pyrazol-4-yl)-amide]
IC50: 1 to 10 nM

CCc1c(C(O)(c2ccccc2)c2ccccc2)nc2cc(OC)c(C(=O)Nc3ncn(CC)n3)cn12 [Compound 24, 3-Ethyl-2-(hydroxy-diphenyl-methyl)-7-methoxy-imidazo[1,2-a]pyridine-6-carboxylic acid (1-ethyl-1H-[1,2,4]triazol-3-yl)-amide]
IC50: 0.01 to 1 nM

CCc1c(C(O)(c2ccccc2)c2ccccc2)nc2ccc(C(=O)Nc3ncn(CC)n3)cn12 [Compound 25, 3-Ethyl-2-(hydroxy-diphenyl-methyl)-imidazo[1,2-a]pyridine-6-carboxylic acid (1-ethyl-1H-[1,2,4]triazol-3-yl)-amide]
IC50: 0.01 to 1 nM

CCc1c(C(O)(c2ccccc2F)c2ccccc2F)nc2cc(OC)c(C(=O)Nc3ncn(CC)n3)cn12 [Compound 28, 2-[Bis-(2-fluoro-phenyl)-hydroxy-methyl]-3-ethyl-7-methoxy-imidazo[1,2-a]pyridine-6-carboxylic acid (1-ethyl-1H-[1,2,4]triazol-3-yl)-amide]
IC50: 0.01 to 1 nM

CCc1c(C(O)(c2ccccc2F)c2ccccc2F)nc2cc(OC)c(C(=O)Nc3cnn(CC)c3)cn12 [Compound 30, 2-[Bis-(2-fluoro-phenyl)-hydroxy-methyl]-3-ethyl-7-methoxy-imidazo[1,2-a]pyridine-6-carboxylic acid (1-ethyl-1H-pyrazol-4-yl)-amide]
IC50: 1 to 10 nM

CCc1c(C(O)(c2ccccc2F)c2ccccc2F)nc2cc(Cl)c(C(=O)Nc3ncn(CC)n3)cn12 [Compound 31, 2-[Bis-(2-fluoro-phenyl)-hydroxy-methyl]-7-chloro-3-ethyl-imidazo[1,2-a]pyridine-6-carboxylic acid (1-ethyl-1H-[1,2,4]triazol-3-yl)-amide]
IC50: 0.01 to 1 nM

CCn1cnc(NC(=O)c2cc3c(nc2F)nc(C(O)(c2ccccc2)c2ccccc2)n3CC)n1 [Compound 89, 1-ethyl-N-(1-ethyl-1H-1,2,4-triazol-3-yl)-5-fluoro-2-(hydroxydiphenylmethyl)-1H-imidazo[4,5-b]pyridine-6-carboxamide]
IC50: 1 to 10 nM

CCn1cc(NC(=O)c2cc3c(nc2F)nc(C(O)(c2ccccc2F)c2ccccc2F)n3CC)cn1 [Compound 90, 2-[bis(2-fluorophenyl)(hydroxy)methyl]-1-ethyl-N-(1-ethyl-1H-pyrazol-4-yl)-5-fluoro-1H-imidazo[4,5-b]pyridine-6-carboxamide]
IC50: 1 to 10 nM

CCn1cnc(NC(=O)c2cc3c(nc2F)nc(C(O)(c2ccccc2F)c2ccccc2F)n3CC)n1 [Compound 91, 2-[bis(2-fluorophenyl)(hydroxy)methyl]-1-ethyl-N-(1-ethyl-1H-1,2,4-triazol-3-yl)-5-fluoro-1H-imidazo[4,5-b]pyridine-6-carboxamide]
IC50: 0.01 to 1 nM

CCn1cc(NC(=O)c2cc3c(nc2Cl)nc(C(O)(c2ccccc2)c2ccccc2)n3CC)cn1 [Compound 98, 5-chloro-1-ethyl-N-(1-ethyl-1H-pyrazol-4-yl)-2-(hydroxydiphenylmethyl)-1H-imidazo[4,5-b]pyridine-6-carboxamide]
IC50: 1 to 10 nM

CCn1cnc(NC(=O)c2cc3c(nc2OC)nc(C(O)(c2ccccc2F)c2ccccc2F)n3CC)n1 [Compound 102, 2-[bis(2-fluorophenyl)(hydroxy)methyl]-1-ethyl-N-(1-ethyl-1H-1,2,4-triazol-3-yl)-5-methoxy-1H-imidazo[4,5-b]pyridine-6-carboxamide]
IC50: 0.01 to 1 nM

CCn1cnc(NC(=O)c2cc3c(nc2OC)nc(C(O)(c2ccccc2)c2ccccc2)n3CC)n1 [Compound 103, 1-ethyl-N-(1-ethyl-1H-1,2,4-triazol-3-yl)-2-(hydroxydiphenylmethyl)-5-methoxy-1H-imidazo[4,5-b]pyridine-6-carboxamide]
IC50: 0.01 to 1 nM

CCn1c(C(O)(c2ccccc2)c2ccccc2)nc2ccc(C(=O)NC[C@@H](C)O)cc21 [Reference Compound, 3-Ethyl-2-[hydroxy(diphenyl)methyl]-N-[(2R)-2-hydroxypropyl]benzimidazole-5-carboxamide, reference compound]
IC50: 0.01 to 1 nM
